This is an account of results in patent US10363248B2, “Salts of heterocyclic modulators of HIF activity for treatment of disease” (priority 2014, dated 2019).

Each structure is given as a SMILES string. Values joined by “and” are separate entries in the source; they are usually repeats but may differ in a detail not shown here. Identical values can stand only once. “Also recorded” adds a separate entry of the source. Counter-ions that a name gives are not always drawn. Like-named read-outs stand apart in the source and are kept apart here.

Data set [1] is described as follows: Plasma concentration-time data and PK parameters after a PO dose of 10 mg/kg in female CD1 nude mice (Groups 1-5). How it is done:
(§1) Pharmacokinetic studies were performed in female CD-1 nude mice. —Either 10 or 50 mg/kg of each test article was administered PO, QD in 0.5% methylcellulose aqueous solution or suspension. […] Plasma concentrations were analyzed using a LC/MS method and the pharmacokinetic parameters computed using a noncompartmental method.

Data set [2] in a line: Dynamic vapor sorption (DVS). Format: physicochemical. Particulars: for form transformation after DVS test: XRPD after DVS; for hygroscopicity classification: according to DVS result; for DVS Sorption (%): weight gain from 0 to 80% RH, 25° C. The procedure: Transfer about 10 mg of sample into a DVS (DVS Advantage-1, SMS) and record the weight change with respect to the atmospheric humidity at 25° C. Use the following parameters: Equilibrium: dm/dt: 0.01%/min. (for min: 10 min and max: 180 min). Drying: 0% RH for 120 min RH (%) measurement step: 10%; RH (%) measurement step scope: 0-90-0%

A short description of data set [3]: Plasma concentration in female CD-1 nude mice, formulation groups A-C. Format: in vivo. Particulars: for concentration at 6 h: time point 6 h; for concentration at 6 h / concentration at 8 h: individual mouse; for concentration at 8 h: time point 8 h; for concentration at 24 h: group mean. How it is done: as §1
The subject of another data set is OCI-AML3 cells. Kind of data set: OCI-AML3 human leukemia model in NSG mice. It is filed as in vivo, NSG nude mice. Conditions: daily oral 10 mg/kg. How it is done: (§2) The OCI-AML3 cell line was treated with various concentrations of compound for 2 days and the percent of viable cells normalized to control cells treated with DMSO (FIG. 6). OCI-AML3 cells constitutively expressing luciferase were tail vein injected in NSG nude mice. 17 days after cell injection, luciferin was injected into animals and luciferase signal was measured using an IVIS imaging system to determine tumor burden and for randomization of subjects into study groups. On day 18, animals began receiving daily oral doses of vehicle or 10 mpk of the compound of Example 80 which continued throughout the study. On day 28, imaging was performed again to determine tumor burden (FIG. 7).

Another data set deals with Gli56 cells. Kind of data set: Glioblastoma cellular assay Gli56. Format: cell-based. Particulars: various concentrations. An excerpt:
(§3) NB-1, Gli56, and D423 cell lines are deleted for ENO-1 (GLI56 and D423) or PGD, which renders them with reduced glycolytic capacity (Muller, F. et al., Nature, 2012, 488, 337-42).

The next data set concerns TMD8 cells. Kind of data set: Diffuse large B-cell lymphoma (DLBCL) assay, viable cells. Particulars: varying concentrations, 7 days; Guava ViaCount; FIG. 1. It is filed as cell-based. The procedure:
Equal number of TMD8 cells were plated and treated with varying concentrations of the compound of Example 80 for 7 days. Percent of viable cells was determined using Guava ViaCount reagents (EMD Millipore cat #4000-0040) that contains proprietary dyes that enable the determination of the number of live and dead cells in a sample (FIG. 1).

The subject of another data set is OCI-AML3 cell line. Description: Acute myeloid leukemia cell viability. Format: cell-based. Particulars: various concentrations, 2 days; normalized to DMSO; FIG. 6. The procedure: as §2
A further data set relates to NB-1 cells. Kind of data set: Neuroblastoma cellular assay. It is filed as cell-based. Particulars: various concentrations.
Text: as §3

Another data set concerns D423 cells. Kind of data set: Glioblastoma cellular assay D423. It is filed as cell-based. Conditions: various concentrations; FIG. 4.
Text: as §3

A further data set relates to NB-1 xenografts. Description: NB-1 xenograft model. It is filed as in vivo, CD-1 nude mice. Particulars: daily oral treatment with 10 mg/kg; FIG. 5.
The subject of another data set is 293T-HRE-GFP-luc cells. Description: Cell-based reporter assay for IC50 determinations. Particulars: hypoxia for 6 hrs. (1% O2); luminescence; read-out: IC50 Classification. The procedure: IC50 values were calculated using a four-parameter logistic curve fit.
Where [4] appears, read: female, CD-1 nude, mouse, oral, read-out: Calc. Conc.
[5] abbreviates: female, CD-1 nude, mouse, oral, read-out: Calc. Conc. (ng/mL).
[6] abbreviates: time point 2 h, individual mice, PO, QD, 10 or 50 mg/kg, listed as C, methanesulfonate.
The mark [7] stands for this setting: time point <24, individual mouse.
Where [8] appears, read: female, CD-1 nude, mouse, in vivo, po, 10 mg/kg.
[9] abbreviates: time point 2 h, individual mice, PO, QD, 10 or 50 mg/kg, listed as A.
Setting [10] is: time point 24 h, individual mice, PO, QD, 10 or 50 mg/kg, listed as A.
The mark [11] stands for this setting: time point 2 h, individual mice, PO, QD, 10 or 50 mg/kg, 2,2,2-trifluoroacetate.
Where [12] appears, read: time point 24 h, individual mice, PO, QD, 10 or 50 mg/kg, 2,2,2-trifluoroacetate.

For the compound `Cc1nc(-c2nc(-c3ccc(OC(F)(F)F)cc3)no2)nn1Cc1cccc(N2CCC(S(C)(=O)=O)CC2)c1.Cl` [5-(5-methyl-1-(3-(4-(methylsulfonyl)piperidin-1-yl)benzyl)-1H-1,2,4-triazol-3-yl)-3-(4-(trifluoromethoxy)phenyl)-1,2,4-oxadiazole hydrochloride], the “plasma concentrations compared with the free base” value in data set [1] (mouse, in vivo, po) is “significantly higher”.
With `Cc1nc(-c2nc(-c3ccc(OC(F)(F)F)cc3)no2)nn1Cc1cccc(N2CCC(S(C)(=O)=O)CC2)c1.O=C(O)C(F)(F)F` [5-(5-methyl-1-(3-(4-(methylsulfonyl)piperidin-1-yl)benzyl)-1H-1,2,4-triazol-3-yl)-3-(4-(trifluoromethoxy)phenyl)-1,2,4-oxadiazole 2,2,2-trifluoroacetate], in [1] (CD-1 mice, PO), the “plasma concentrations compared with the free base” value is “significantly higher”.
Regarding `Cc1nc(-c2nc(-c3ccc(OC(F)(F)F)cc3)no2)nn1Cc1cccc(N2CCC(S(C)(=O)=O)CC2)c1.O=S(=O)(O)c1ccccc1` [BESYLATE SALT, 1-(3-((5-methyl-3-(3-(4-(trifluoromethoxy)phenyl)-1,2,4-oxadiazol-5-yl)-1H-1,2,4-triazol-1-yl)methyl)phenyl)-4-(methylsulfonyl)piperidin-1-ium benzenesulfonate], in data set [1] (mouse, in vivo, po), the “oral bioavailability in comparison to the free base” value was “improved oral bioavailability” and the “plasma concentrations compared with the free base” value is listed as “significantly higher”.
`Cc1nc(-c2nc(-c3ccc(OC(F)(F)F)cc3)no2)nn1Cc1cccc(N2CCC(S(C)(=O)=O)CC2)c1` [HYDROCHLORIDE SALT, 5-(5-methyl-1-(3-(4-(methylsulfonyl)piperidin-1-yl)benzyl)-1H-1,2,4-triazol-3-yl)-3-(4-(trifluoromethoxy)phenyl)-1,2,4-oxadiazole hydrochloride]: in [1] (mouse, in vivo, po), the “oral bioavailability in comparison to the free base” value was “improved oral bioavailability”. Also, the “form transformation after DVS test” value in data set [2] is recorded as “No form transformation was observed”. Also, in data set [2], the hygroscopicity classification result is reported as “slightly hygroscopic”. The “DVS Sorption (%)” value is 1.59% in [2] (listed as HCl, hydrochloride) and 1.59% in data set [2] (listed as hydrochloride candidate, hydrochloride).
For the compound `CS(=O)(=O)O.Cc1nc(-c2nc(-c3ccc(OC(F)(F)F)cc3)no2)nn1Cc1cccc(N2CCC(S(C)(=O)=O)CC2)c1` [MESYLATE SALT, 1-(3-((5-methyl-3-(3-(4-(trifluoromethoxy)phenyl)-1,2,4-oxadiazol-5-yl)-1H-1,2,4-triazol-1-yl)methyl)phenyl)-4-(methylsulfonyl)piperidin-1-ium methanesulfonate], in data set [1] (mouse, in vivo, po), the “oral bioavailability in comparison to the free base” value was “improved oral bioavailability” and the “plasma concentrations compared with the free base” value is recorded as “significantly higher”. Further, in [3] (setting [4]), the concentration at 6 h is 2950 nM and the concentration at 8 h was 2910 nM. In addition, in data set [3] (setting [5]), the concentration at 6 h is 1660 ng/mL and the concentration at 8 h is 1640 ng/mL. In data set [3] (time point 2 h, PO, QD, 10 or 50 mg/kg), the concentration at 24 h was determined as 2249.9 nM. Also, in [3] (setting [6]), the “Calc. Conc. (nM)” value was 2676.0 nM and 1457.7 nM and 2725.3 nM and 2248.5 nM and 2141.9 nM; the “Calc. Conc. (ng/mL)” value was 1504.5 ng/mL and 819.5 ng/mL and 1532.2 ng/mL and 1264.1 ng/mL and 1204.2 ng/mL. For the same compound, in data set [3] (setting [7]), the “Calc. Conc. (nM)” value is given as 1469.8 nM and the “Calc. Conc. (ng/mL)” value is 826.3 ng/mL. Also, in data set [2], the “form transformation after DVS test” value was “No form transformation was observed”, the hygroscopicity classification entry was “hygroscopic” and the “DVS Sorption (%)” value was found to be 2.47%.
With `Cc1nc(-c2nc(-c3ccc(OC(F)(F)F)cc3)no2)nn1Cc1cccc(N2CCC(S(C)(=O)=O)CC2)c1` [Example 80, 4-Methanesulfonyl-1-{3-[(5-methyl-3-{3-[4-(trifluoromethoxy)phenyl]-1,2,4-oxadiazol-5-yl}-1H-1,2,4-triazol-1-yl)methyl]phenyl}piperidine], in [1] (setting [8]), the AUCINF came out at 16.2 µM·h, the AUClast is 12.1 µM·h, the concentration peaked (Cmax) at 959 nM and the “Terminal t1/2” value came to 12.4 h. For the same compound, the “Concentration Mean” value in data set [1] (female, CD-1 nude, mouse, in vivo, po, 10 mg/kg, 0.083 hr) is 0.0289 µM. The “Concentration Mean” value in data set [1] (female, CD-1 nude, mouse, in vivo, po, 10 mg/kg, 0.25 hr) came to 0.280 µM. The “Concentration Mean” value in [1] (female, CD-1 nude, mouse, in vivo, po, 10 mg/kg, 0.5 hr) was found to be 0.440 µM. The concentration at 24 h in data set [3] (female, CD-1 nude, mouse, oral, time point 24 h, PO, QD, 10 or 50 mg/kg) amounted to 414 nM. In addition, in data set [3] (time point 2 h, PO, QD, 10 or 50 mg/kg, listed as A), the concentration at 24 h stood at 561.2 nM. In addition, in [3] (setting [9]), the “Calc. Conc. (nM)” value is 591.7 nM and 510.0 nM and 285.4 nM and 657.3 nM and 761.7 nM; the “Calc. Conc. (ng/mL)” value is 332.7 ng/mL and 286.7 ng/mL and 160.4 ng/mL and 369.5 ng/mL and 428.2 ng/mL. In [3] (setting [10]), the “Calc. Conc. (nM)” value was 987.2 nM and 307.2 nM and 342.7 nM and 233.3 nM and 201.3 nM; the “Calc. Conc. (ng/mL)” value was 555.0 ng/mL and 172.7 ng/mL and 192.7 ng/mL and 131.2 ng/mL and 113.1 ng/mL. In addition, in the data set with OCI-AML3 cells (FIG. 7), the “disease burden measured by IVIS imaging” value is on record as “reduces disease burden”. Also, the survival entry in the data set on OCI-AML3 cells (relative to vehicle, FIG. 8, 10 mg/kg) is on record as “extends survival; also recorded: significantly increased their survival”. Also, the “cell death in Gli56 cells” value with Gli56 cells is “cell death readily apparent”. In addition, the “number of viable Gli56 cells” value in the data set with Gli56 cells (FIG. 3) is listed as “reduced number of viable cells; also recorded: cell numbers are significantly reduced”. In addition, the “number/percent of viable TMD8 cells” value in the data set on TMD8 cells is listed as “reduced number of viable cells; also recorded: respond robustly”. In addition, the “DVS Sorption (%)” value in [2] was 0.16%. In the data set on OCI-AML3 cell line, the “number of viable OCI-AML3 cells” value is on record as “reduced number of viable cells”. For the same compound, the “cell death in NB-1 cells” value with NB-1 cells is listed as “cell death readily apparent”. Moreover, the “number of viable NB-1 cells” value in the data set with NB-1 cells (FIG. 2) is listed as “reduced number of viable cells; also recorded: cell numbers are significantly reduced”. Also, the “number of viable D423 cells” value in the data set with D423 cells is listed as “reduced number of viable cells; also recorded: cell numbers are significantly reduced”. Moreover, in the data set on NB-1 xenografts, the “growth of NB-1 xenografts (tumor growth)” value is “reduces the tumor growth”. Further, the IC50 – broadly, the concentration needed to halve the response being measured – with 293T-HRE-GFP-luc cells is under 100 nM.
For `Cc1nc(-c2nc(-c3ccc(OC(F)(F)F)cc3)no2)nn1Cc1cccc(N2CCC(S(C)(=O)=O)CC2)c1` [B, 5-(5-methyl-1-(3-(4-(methylsulfonyl)piperidin-1-yl)benzyl)-1H-1,2,4-triazol-3-yl)-3-(4-(trifluoromethoxy)phenyl)-1,2,4-oxadiazole 2,2,2-trifluoroacetate], the concentration at 24 h in [3] (time point 2 h, PO, QD, 10 or 50 mg/kg, 2,2,2-trifluoroacetate) is 834.8 nM; in data set [3] (time point 24 h, PO, QD, 10 or 50 mg/kg, 2,2,2-trifluoroacetate) it was 776.4 nM. For the same compound, the “Calc. Conc. (nM)” value was 1131.9 nM and 748.0 nM and 793.6 nM and 632.1 nM and 868.2 nM in data set [3] (setting [11]); 1426.5 nM and 220.7 nM and 1116.1 nM and 490.3 nM and 628.2 nM in data set [3] (setting [12]). Also, the “Calc. Conc. (ng/mL)” value in data set [3] (setting [11]) was 636.4 ng/mL and 420.5 ng/mL and 446.2 ng/mL and 355.4 ng/mL and 488.1 ng/mL; in data set [3] (setting [12]), 802.0 ng/mL and 124.1 ng/mL and 627.5 ng/mL and 275.6 ng/mL and 353.2 ng/mL.
